80 molecules from the METLIN SMRT retention time set (Domingo-Almenara et al. 2019) can be followed below.

This series is described as follows: gradient 5% acetonitrile 3 min, to 50% in 2 min, to 85% in 15 min, held 3 min, 100 µL/min. The note with it: column: Zorbax Extend-C18 2.1 x 50 mm; eluents: water / acetonitrile, 0.1% formic acid. The gist of the method: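 Standards, all pure, were combined into mixtures of ~100 molecules and run at 100 μL/min on a Zorbax Extend-C18 column (2.1 × 50 mm, 1.8 μm) with water and acetonitrile, each containing 0.1% formic acid. A coupled quadrupole time-of-flight mass spectrometer operated in positive and negative ionization mode. Retention time values come from computationally picked adduct peaks, each inspected manually.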
As for `CC(C)n1c(N2CCN(C(=O)c3[nH]nc4c3CCc3ccccc3-4)CC2)cc(=O)n(C(C)C)c1=O`, the RP-LC retention time was 872 s.

Turning to `COc1cccc(CNC(=O)N2CCN(Cc3nc4ccccc4o3)CC2)c1`, the RP-LC retention time turned out to be 654 s.

As to `CC(C)c1ccc(N2C(=O)C3N=NN(Cc4nc(-c5ccccc5Br)no4)C3C2=O)cc1` (stereo not given), the RP-LC retention time was found to be 1140 s.

`CSc1cccc(NC(=O)Nc2cccc(-c3ccc(N4CCCC4)nn3)c2)c1` had an RP-LC retention time of 712 s.

Molecule `CCCN1CCN(CCCNC(=O)C(C)n2c(=O)c(C(F)(F)F)nc3ccccc32)CC1` (stereo not given) had an RP-LC retention time of 622 s.

In turn, `O=C(C1=NN(CCc2ccccc2)c2ccccc2S1(=O)=O)N1CCCC1` registered an RP-LC retention time of 857 s.

`COc1ccc(-c2cc(C(=O)N3CCCC3)c(C)n2C)cc1` yielded an RP-LC retention time of 589 s.

In turn, `O=C(c1ccccn1)N1CCC(n2c(C3CCCC3)nc3cccnc32)C1` (stereo not given) returned an RP-LC retention time of 620 s.

On to `CCOC(=O)c1noc2nc(C)nc(NCc3ccc(CC)cc3)c12`, for which the RP-LC retention time turned out to be 722 s.

Molecule `CCOc1ccccc1NC(=O)N1CCC2(CC1)N=C(c1cccc(F)c1)C(=O)N2` gave an RP-LC retention time of 902 s.

Consider `O=C(C1=CN(c2cc(F)cc(F)c2)c2ccccc2S1(=O)=O)N1CCCCC1`, for which the RP-LC retention time came out at 873 s.

In turn, `O=C(Cn1nc2c(Oc3cccc(F)c3)nccn2c1=O)Nc1ccccc1C(F)(F)F` gave an RP-LC retention time of 870 s.

Consider `CCn1c(N2CCC(C(=O)NC3CCCCCC3)CC2)cc(=O)n(C)c1=O`, for which the RP-LC retention time came out at 855 s.

Molecule `Cc1cc2c(cc1S(=O)(=O)N1CCCC1C(=O)NCc1ccc3c(c1)OCO3)OCC(=O)N2` (stereo not given) gave an RP-LC retention time of 718 s.

Consider `CO[C@H]1C(=O)N(C(C)C)[C@H]1C1CCN(S(=O)(=O)c2cccnc2)CC1`, for which the RP-LC retention time came to 700 s.

`O=c1cc(-c2cccnc2)oc2c1ccc1ccccc12` came in with an RP-LC retention time of 979 s.

Molecule `CCC(C)C(NC(=O)c1cc(C)cc(C)c1)C(=O)Nc1nc2ccccc2[nH]1` (stereo not given) displayed an RP-LC retention time of 799 s.

`Cc1cc(C(=O)Nc2cnc(N3CCCCC3)nc2)no1` showed an RP-LC retention time of 845 s.

Regarding `Cc1cccc(OCC(=O)N2CCC3(C2)C(=O)N(C)c2ccccc23)c1` (stereo not given), the RP-LC retention time is 825 s.

`Cc1oc(-c2ccccc2)nc1Cn1ccn2nc(-c3ccc(F)cc3)cc2c1=O` had an RP-LC retention time of 1100 s.

For the molecule `CCOc1ccc(OC(=O)C2CCN(c3nc4ccccc4[nH]3)CC2)cc1`, the RP-LC retention time is 712 s.

Turning to `COCCN1C(=O)c2ccccc2C(C(=O)Nc2ccc(OC)c(OC)c2)C12CCCC2` (stereo not given), the RP-LC retention time came out at 776 s.

Regarding `COC(=O)c1c(NCCc2c[nH]c3ccccc23)c2cc(F)ccc2[nH]c1=O`, the RP-LC retention time came to 770 s.

Turning to `C#CCSc1nc2sc(C)c(C)c2c(=O)n1C`, the RP-LC retention time was determined as 983 s.

Molecule `CCCNC(=O)C1CCCN(c2ccc(SCC(=O)Nc3cccc(SC)c3)nn2)C1` (stereo not given) showed an RP-LC retention time of 693 s.

In turn, `CSc1ncc(C(=O)NC2CC2)c(N)n1` yielded an RP-LC retention time of 543 s.

For `COc1cc2c(cc1OC)C(C(=O)N1CC(C)CC(C)C1)C(c1cccnc1)N(C)C2=O` (stereo not given), the RP-LC retention time worked out at 659 s.

For the molecule `CC(=O)N1CCCn2nc(-c3cccc(F)c3)cc2C1`, the RP-LC retention time is 722 s.

For `O=C(Cc1csc(-n2cccc2)n1)N1CCN(c2ccccn2)CC1`, the RP-LC retention time was determined as 623 s.

As to `CCc1noc(C2(NC(=O)/C=C/c3ccccc3)CCCCC2)n1`, the RP-LC retention time came to 961 s.

For `CCC1CN(C(=O)N2CCC(C(=O)NCCCN3CCCC3)CC2)c2ccccc2O1` (stereo not given), the RP-LC retention time came to 627 s.

Consider `CC(Cc1ccco1)NC(=O)CN1C(=O)CN(C(=O)NCc2ccccc2)c2ccccc21` (stereo not given), for which the RP-LC retention time turned out to be 816 s.

With `CCc1ccc(CNC(=O)CN2C(=O)C3CCCCN3c3ccc(S(=O)(=O)N(C)C)cc32)cc1` (stereo not given), the RP-LC retention time is 975 s.

The molecule `O=C(Nc1cnc(N2CCOCC2)nc1)c1cc(F)ccc1Cl` registered an RP-LC retention time of 746 s.

Take `COc1ccc(OC)c(S(=O)(=O)N2CCCC(C(=O)Nc3cccc(SC)c3)C2)c1` (stereo not given): the RP-LC retention time came to 972 s.

`COc1ccccc1NC(=O)c1ccc(Br)cc1F` returned an RP-LC retention time of 1070 s.

In the case of `Cc1ccccc1-n1ccn(Cc2nc(-c3ccccc3)no2)c(=O)c1=O`, the RP-LC retention time is 809 s.

In turn, `Cc1cccc(NC(=O)CN2C(=O)C(C(=O)N3CCCC3)Sc3ccccc32)c1C` (stereo not given) registered an RP-LC retention time of 945 s.

`CCCNS(=O)(=O)c1ccc(-c2c(C)noc2C)cc1` showed an RP-LC retention time of 835 s.

The molecule `Cc1ccc(-n2ccc(=O)c(-c3nc(-c4cccc(C)c4)no3)n2)cc1` displayed an RP-LC retention time of 974 s.

The molecule `N#C/C(=C\c1ccc(-c2cc(Cl)ccc2Cl)o1)C(=O)Nc1cccc2ncccc12` registered an RP-LC retention time of 1110 s.

In turn, `COc1ccc(C2Cn3nnc(-c4nc(-c5ccc(Cl)cc5)no4)c3CO2)cc1` (stereo not given) showed an RP-LC retention time of 1240 s.

As for `CCCCCC(=O)Nc1cc(-c2nc3ccc(C)cc3[nH]2)ccc1C`, the RP-LC retention time turned out to be 750 s.

`O=C(NCc1ccccc1F)C1CCc2nc(N3CCOCC3)ncc2C1` (stereo not given) returned an RP-LC retention time of 731 s.

Molecule `Cc1nn(-c2ccc(F)cc2)c(C)c1S(=O)(=O)N1CCC(C(=O)N2CCN(C)CC2)CC1` showed an RP-LC retention time of 625 s.

In the case of `C=CCn1c(=O)c2ccccc2n(Cc2nc(-c3ccc(F)cc3)no2)c1=O`, the RP-LC retention time is 1050 s.

`Cc1ccc(C2Cn3nnc(-c4nc(C5CCCCC5)no4)c3CO2)c(C)c1` (stereo not given) returned an RP-LC retention time of 1390 s.

As for `Cc1cc2n(n1)CCCN2C(=O)CCC(=O)N1CCN(c2ccccn2)CC1`, the RP-LC retention time was determined as 555 s.

The molecule `Cc1ccc(C2=NC3(CCN(C(=O)c4ccc5c(c4)OCO5)CC3)NC2=O)cc1C` yielded an RP-LC retention time of 831 s.

Regarding `Cc1ccccc1NC(=O)NC1CCN(C(=O)C2CC2)C1` (stereo not given), the RP-LC retention time worked out at 660 s.

Regarding `O=C(COc1ccccc1F)NC1CCCC(OC(=O)Nc2ccccc2)C1` (stereo not given), the RP-LC retention time was 872 s.

With `O=S(=O)(c1cccc(F)c1)N1CCc2nc(-c3ccc(Cl)cc3)ncc2C1`, the RP-LC retention time came out at 1130 s.

Take `Cc1ccc(-c2cc(C(F)(F)F)n3nc(C(=O)O)cc3n2)cc1`: the RP-LC retention time amounted to 943 s.

Regarding `CC(C)CCC(=O)N1CCC2(CC1)CC(C)(O)CCO2` (stereo not given), the RP-LC retention time was 698 s.

For the molecule `O=C(CSc1ccc(S(=O)(=O)c2ccccc2)nn1)Nc1ccc2c(c1)OCO2`, the RP-LC retention time is 822 s.

`CCC(=O)N(C1CCOCC1)C1CCN(S(=O)(=O)c2ccc(F)c(F)c2)CC1` gave an RP-LC retention time of 856 s.

For `O=C(c1ccc(OCC2CCN(C(=O)C3CCC3)CC2)cc1)N1CCCC1`, the RP-LC retention time came to 782 s.

Molecule `COc1cc(NC(=O)Cn2c(=O)nc(N3CCC(C)CC3)c3ccccc32)cc(OC)c1` yielded an RP-LC retention time of 798 s.

In turn, `CCc1nnc(-c2coc(S(=O)(=O)N3CCC(N4CCCCC4)CC3)c2)o1` returned an RP-LC retention time of 607 s.

The molecule `Cc1cc(F)ccc1NS(=O)(=O)c1c(C)sc(C)c1-c1cc(C(F)(F)F)on1` returned an RP-LC retention time of 1200 s.

Take `O=C(CSCc1ccccc1)Nc1c(-c2ccc(F)cc2)nc2ccccn12`: the RP-LC retention time is 714 s.

Take `O=C(NCCc1c[nH]c2ccc(Cl)cc12)c1ccncc1`: the RP-LC retention time was determined as 639 s.

On to `COCc1cnc2c(c1SCc1cccc(Cl)c1)c(=O)n(C)c(=O)n2C`, for which the RP-LC retention time is 1060 s.

On to `Cc1cccc(NC(=O)N2CCc3[nH]cnc3C2c2ccncc2)c1` (stereo not given), for which the RP-LC retention time was found to be 557 s.

Take `COc1ccc(S(=O)(=O)Nc2ccc3nc(-c4ccc(F)cc4)cc(OC)c3c2)cc1`: the RP-LC retention time was 774 s.

`COc1ccc(-c2cn3nc(N4CCCC(C(=O)N5CCCC5)C4)sc3n2)cc1` (stereo not given): the RP-LC retention time stood at 981 s.

On to `O=C(N[C@@H]1CN(Cc2cc(Cl)ccc2F)C[C@H]1CO)C1CCC1`, for which the RP-LC retention time amounted to 610 s.

Molecule `COc1ccc(N2CCCn3c2nc2c3c(=O)n(CC(=O)O)c(=O)n2C)cc1` had an RP-LC retention time of 660 s.

Molecule `COc1ccc(N2CCN(C(=O)c3cn(-c4cc(N5CCCCC5)ncn4)cn3)CC2)cc1` came in with an RP-LC retention time of 817 s.

Regarding `Cc1c(C(=O)N2CCOCC2)sc2nc(-c3ccccc3)c(NC(C)(C)C)n12`, the RP-LC retention time is 778 s.

The molecule `COCCN1C(=O)c2ccccc2C(C(=O)N2CCN(c3ccccn3)CC2)C1c1cccs1` (stereo not given) registered an RP-LC retention time of 621 s.

`COC(=O)C1=C(N)Oc2cc(C)n(CCN(C)C)c(=O)c2C1c1cccc(OC)c1` (stereo not given) came in with an RP-LC retention time of 609 s.

Molecule `CC(C(=O)NCCN1CCCC1)n1c2ccccc2c2cnn(C)c(=O)c21` (stereo not given) returned an RP-LC retention time of 607 s.

Regarding `CC1(CNC(=O)NCCc2ccccc2)CCOCC1`, the RP-LC retention time is 696 s.

In turn, `COCc1cc(=O)n(CC(=O)Nc2ccc(F)cc2C)c(N)n1` displayed an RP-LC retention time of 593 s.

The molecule `CCOc1ccc(-c2noc(Cc3nnc(-c4ccc(C)c(F)c4)o3)n2)cc1` gave an RP-LC retention time of 1140 s.

For the molecule `Cc1cccc(NC(=O)Cn2c(C)nc(C)c(C)c2=O)c1`, the RP-LC retention time is 658 s.

Molecule `Cc1ccc(C)c(-c2csc(Nc3ccc(Br)cn3)n2)c1` showed an RP-LC retention time of 1330 s.

Consider `CCC1Oc2ccc(S(=O)(=O)N3CCC(C(=O)Nc4ccc(C)c(F)c4)CC3)cc2NC1=O` (stereo not given), for which the RP-LC retention time came to 892 s.

Take `Cc1ccccc1NS(=O)(=O)c1cn(C(C)C)c2ncccc12`: the RP-LC retention time was 896 s.
